Results from US9359409B2, “Antimicrobial peptides, compositions comprising the same and uses thereof” (priority 2012, dated 2016).
Like-named read-outs stand apart in the source and are kept apart here. Ends that are not written are not given here.

Columns and labels:
[1] = tested on: human erythrocytes; experiment: Erythrocyte hemolysis assay (cytotoxicity); assay type: cell-based; details: peptide 128 ug/ml
Method: Subsequently, the capacity of the peptides of the invention for lysing human erythrocytes was evaluated, as a measure of their cytotoxicity (Table 2). The assays were carried out according to the Examples and are expressed as a percentage of total lysis obtained with either water or the surfactant Tween 20. In this assays, the lower hemolysis percentage, the lower expected cytotoxic activity.
Evaluation of cytotoxic activity was performed by means of an erythrocyte hemolysis assay (according to Pure Appl. Chem., Vol. 79, No. 4, pp. 717-728, 2007). In brief, from a volume of heparinized human whole blood, 3 times that volume of PBS is added and centrifuged 10 minutes at 1500 rpm, repeating the washing two more times. 10% blood solutions in PBS were prepared with that pellet. Subsequently, each group was added the corresponding peptide at the indicated concentration and incubated at 37° C. for 30 minutes. […]

[2] = tested on: P. aeruginosa; assay type: cell-based
Method: (§1) In vitro sensitivity assay of aerobically growing bacteria, using the disc diffusion method was performed according to the standards in the M2 document of the CLSI (Clinical and Laboratory Standards Institute: Performance Standards for Antimicrobial Disk Susceptibility Tests.) using the non-amidated peptides
(§2) In brief, intermediate solutions (10×) of the antimicrobial non-amidated peptides were prepared by serial dilutions 1:2, 1:4 and 1:8 by two-fold dilutions. Then, one part of the solution of the antimicrobial peptide 10× was added to nine parts of melted bacteriological agar. The antibiotic solution was added for each dilution, in the melted agar and cooled to 45-50° C. in a water bath. Then, the agar-antibiotic mixture was placed in a Petri dish until a 3-4 mm depth was reached. The inoculum is prepared with a turbidity of 0.5 in the McFarland scale (approximately 1-2 10^8 CFU/ml). The final inoculum required for the agar dilution test is 10^4 colony forming units (CFU) per “spot” having 5-8 mm in diameter. The inoculated plates must be incubated upside down at 35° C. for a period of 16-20 hs. MIC was recorded as the value of the lower dilution completely inhibiting bacterial development, without considering the development of a single colony or a slight film caused by the inoculum deposit. The final point in these cases will correspond to the concentration at which there is more than 80% reduction in growth as compared with the control.

[3] = tested on: S. aureus; assay type: cell-based; details: non-amidated peptides
Method: as §1, §2

[4] = tested on: K. pneumoniae; assay type: cell-based; details: non-amidated peptides; K. pneumoniae M13540, KPC
Method: as §1, §2

[5] = tested on: E. coli; assay type: cell-based; details: non-amidated peptides; E. coli ATCC 25922, WT
Method: as §1, §2

[6] = tested on: S. warnerii; assay type: cell-based
Method: as §1, §2

[7] = tested on: S. cohnii; assay type: cell-based
Method: as §1, §2

[8] = tested on: E. gallinarum
Method: (§3) Subsequently, an analysis of a panel of clinical isolates including strains with different resistance mechanisms against conventional antibiotics was carried out, all of which are of clinical relevance. […] In Table 3 the results for a panel of Gram negative bacteria are shown, and in Table 4 for a panel of […] bacteria. In these tables the detected gene/s responsible for the resistance against antibiotics for each strain, are included.
(§4) Antimicrobial activity was analyzed by means of the determination of the MIC (minimum inhibitory concentration) by the microdilution technique. The technique was carried out in the standard fashion according to (CLSI M07-A9 Vol. 32 No 2. January 2012). The peptide concentration range used was from 0.5 μg/mL to 512 μg/mL in two-fold serial dilutions. The used medium was MH Difco broth supplemented with cations, at a final concentration of Ca^++20-25 mg/L and Mg^++10-12.5 mg/L. The working inoculum used corresponds to a 1/100 dilution of a bacterial suspension equivalent to 0.5 in the Mc Farland scale.

[9] = tested on: E. raffinosus; details: E. raffinosus M6187, resistance gene vanA
Method: as §3, §4

[10] = tested on: A. baumanii
Method: as §3, §4

[11] = tested on: S. hominis
Method: as §3, §4

[12] = tested on: A. junii; details: A. junii M9013, resistance gene oxa-51 + imp
Method: as §3, §4

[13] = tested on: S. saprophyticus
Method: as §3, §4

[14] = tested on: S. haemolyticus
Method: as §3, §4

[15] = tested on: E. faecalis
Method: as §3, §4

[16] = tested on: Escherichia coli
Method: (§5) The 5 designed and synthesized peptides of the invention, plus omiganan (peptide of the state of the art) were evaluated for their antimicrobial capacity in microdilution assays for determining the minimum inhibitory concentration (MIC). A first panel of 8 representative strains was analyzed in these assays, encompassing Gram positive and Gram negative bacteria. […] The lowest MIC values indicate a higher antimicrobial potency.
as §3, §4

[17] = tested on: Klebsiella pneumoniae
Method: as §5, §3, §4

[18] = tested on: Pseudomonas aeruginosa; experiment: MIC by broth microdilution; assay type: cell-based
Method: as §5, §3, §4

ILRWPWWPWRRK-NH2 [Omiganan, ILRWPWWPWRRK, reference compound]
>128 µg/mL: MIC in agar dilution [2] | MIC in agar dilution ([2]; non-amidated peptides, P. aeruginosa M13513, KPC) | MIC in agar dilution ([3]; S. aureus ATCC29213, MSSA) | MIC in agar dilution ([3]; S. aureus M6794, MRSA) | MIC in agar dilution [4] | MIC in agar dilution [5]
128 µg/mL: MIC [15] | MIC ([15]; E. faecalis M4449, resistance gene vanA) | MIC ([15]; E. faecalis M4992, resistance gene vanA) | MIC ([15]; E. faecalis M6383, resistance gene vanA) | MIC ([15]; E. faecalis M6983, resistance gene vanA) | MIC ([17]; K. pneumoniae M9170, resistance gene oxa-GIII) | MIC ([17]; K. pneumoniae M9491, resistance gene mox) | MIC ([18]; P. aeruginosa M7907, resistance gene per)
256 µg/mL: MIC ([15]; E. faecalis ATCC 51299, resistance gene vanB) | MIC ([15]; E. faecalis M4899, resistance gene vanB) | MIC ([15]; E. faecalis M6534, resistance gene vanB) | MIC ([17]; K. Pneumoniae M9885, resistance gene kpc) | MIC ([17]; K. pneumoniae M13540, resistance gene kpc) | MIC ([18]; P. aeruginosa M5109, resistance gene vim) | MIC ([18]; P. aeruginosa M7723, resistance gene kpc) | MIC ([18]; P. aeruginosa M13513, resistance gene kpc)
32 µg/mL: MIC ([10]; A. baumanii M5277, resistance gene per) | MIC ([10]; A. baumanii M7489, resistance gene oxa-51 + tem) | MIC ([16]; E. coli NEU23, resistance gene oxa-GIII + tem)
64 µg/mL: MIC ([10]; A. baumanii FAV-1, resistance gene per + oxa-51 + oxa-58) | MIC ([10]; A. baumanii M5179, resistance gene oxa-51) | MIC ([10]; A. baumanii M7978, resistance gene imp) | MIC ([10]; A. baumanii M9665, resistance gene oxa-51) | MIC ([10]; A. baumanii M13523, resistance gene oxa-51) | MIC [12] | MIC ([16]; E. coli ABC11, resistance gene ctx-m-2) | MIC ([16]; E. coli Cos15, resistance gene per + tem) | MIC ([16]; E. coli LCA1, resistance gene ctx-m-2 + tem-1) | MIC ([16]; E. coli M5306, resistance gene ctx-m-2 + tem-1 + per-2) | MIC ([16]; E. coli M7859, resistance gene cit) | MIC ([16]; E. coli M9209, resistance gene kpc)
11.6%: Hemolysis % (1% Tween20) ([1]; percentage of total lysis obtained with 1% Tween20)
8 µg/mL: MIC [13]
4 µg/mL: MIC [9] | MIC [11] | MIC [14]
16 µg/mL: MIC in agar dilution [6] | MIC in agar dilution [7] | MIC ([8]; E. gallinarum M2685, resistance gene vanC1 + vanA) | MIC ([8]; E. gallinarum M2723, resistance gene vanC1 + vanA) | MIC ([10]; A. baumanii M5282, resistance gene oxa-51)
10%: Hemolysis % (water) ([1]; percentage of total lysis obtained with water)
0.171: OD 540 nm ([1]; supernatant of human erythrocytes, 37° C., 30 minutes)
